In patent publication US7048907B2, “Synthesis, compositions and methods for the measurement of the concentration of stable-isotope labeled compounds in life forms and life form excretory products” (BioPhysics Assay Laboratory, Inc., priority 2001, dated 2006):

Key:
[1] = Kinetics of blood depletion and urine accumulation of chelates in the rat; assay type: in vivo; settings: average of three rats
Experimental: One half ml of Sm-DTPA (0.01 mg/kg), dissolved in saline (pH 7), is injected into the tail vein of three rats. Samples of blood are obtained at 10, 30 and 60 minutes following injection and analyzed for Sm-DTPA by neutron activation. The percent of starting amount of the Sm-DTPA at each time interval is presented in Table 18 (last column on right). Similarly, the accumulation of Sm-DTPA in the rat urine at two times is shown in the last column of Table 18.
One half ml of Technetium-99m-DTPA (1 millicurie), Gd-DTPA (0.05 mg/kg), and Sm-DTPA (0.01 mg/kg) are each dissolved in saline (pH 7), and are injected simultaneously into the tail vein of three rats. Samples of blood are obtained at 10, 30 and 60 minutes following injection and analyzed for ^99mTc-DTPA (gamma counting), Gd-DTPA (T1 relaxation) and Sm-DTPA (neutron activation).
One half ml of Sm-DTPA, La-DTPA and Eu-DTPA (each 0.01 mg/kg), dissolved in saline (pH 7) are injected simultaneously into the tail vein of three rats. Samples of blood are obtained at 10, 30 and 60 minutes following injection and analyzed for each element by neutron activation.
Samples of Sm-DTPA, La-DTPA and Eu-DTPA (0.5 ml; 0.01 mg/kg), each dissolved in saline (pH 7), are injected sequentially at 0, 20, and 40 minutes into the tail vein of three rats. Samples of blood are obtained at 10, 30 and 60 min following each injection and analyzed for each element by neutron activation.

[2] = Stability of chelates to autoclaving (CM-Sephadex assay); assay type: physicochemical; settings: for % of total / dpm: autoclaved 30 minutes at 121° C.
Experimental: A sample comprising 5 ml of Sm-DTPA, La-DTPA, and Eu-DTPA prepared in Examples 9, 10, and 11 were placed in 10 ml glass bottles, each capped with a grey butyl rubber cap, and the caps were crimped. Samples were autoclaved for 30 minutes at 121° C.
Five ml of each of Sm-DOTA, La-DOTA, and Eu-DOTA prepared in Examples 13, 14, and 15 were placed in 10 ml glass bottles capped with a grey butyl rubber cap and crimped. Samples were autoclaved for 30 minutes at 121° C. Samples were allowed to cool to room temperature and were assayed as described in Examples 25.

[3] = Assay of chelate on carboxymethyl (CM) Sephadex column (chelate formation, charge); assay type: physicochemical
[4] = Fraction 1: sample diluted 1:10 then 2-3 ml 0.01M Tris pH 7.5 (eluate)
[5] = Fraction 2: 3 ml 0.01M Tris pH 7.5
[6] = Fraction 3: column and contents (retained)
[7] = Fraction 1: 3 ml 0.01M Tris pH 7.5 before sample
[8] = Fraction 2: 1 ml sample then 3 ml 0.01M Tris pH 7.5 (eluate)
[9] = Fraction 3: further 3 ml 0.01M Tris pH 7.5
[10] = Fraction 4: column and contents (retained)

## O=C([O-])CN(CCN(CC(=O)[O-])CC(=O)[O-])CCN(CC(=O)[O-])CC(=O)[O-].[La+3] [La-DTPA]
[1]; blood 10 min, Sm-DTPA, La-DTPA and Eu-DTPA (each 0.01 mg/kg i.v.) simultaneously administered (Example 31)
  Percent of initial injection, blood: 85% of initial injection
[1]; blood 10 min after each injection, Sm-DTPA, La-DTPA, Eu-DTPA (0.01 mg/kg i.v.) sequentially administered at 0, 20, 40 minutes (Example 32)
  Percent of initial injection, blood: 82% of initial injection
[1]; blood 30 min, Sm-DTPA, La-DTPA and Eu-DTPA simultaneously administered (Example 31)
  Percent of initial injection, blood: 63% of initial injection
[1]; blood 30 min after each injection, sequentially administered (Example 32)
  Percent of initial injection, blood: 62% of initial injection
[1]; blood 60 min, Sm-DTPA, La-DTPA and Eu-DTPA simultaneously administered (Example 31)
  Percent of initial injection, blood: 33% of initial injection
[1]; blood 60 min after each injection, sequentially administered (Example 32)
  Percent of initial injection, blood: 32% of initial injection
[1]; urine 30 min, Sm-DTPA, La-DTPA and Eu-DTPA simultaneously administered (Example 31)
  Percent of initial injection, urine: 23% of initial injection
[1]; urine 30 min, sequentially administered (Example 32)
  Percent of initial injection, urine: 25% of initial injection
[1]; urine 180 min, Sm-DTPA, La-DTPA and Eu-DTPA simultaneously administered (Example 31)
  Percent of initial injection, urine: 92% of initial injection
[1]; urine 180 min, sequentially administered (Example 32)
  Percent of initial injection, urine: 95% of initial injection
[2]
  % eluted from CM-Sephadex column following autoclaving: 100%
[2]; [4]
  % of total: 97 % of total
  dpm: 411400 dpm
[2]; [5]
  % of total: 3 % of total
  dpm: 12180 dpm
[2]; [6]
  % of total: 0 % of total
  dpm: 0 dpm
[3]
  % eluted from the CM-Sephadex column: 100%
[3]; [7]
  % of total: 0 % of total
  dpm: 0 dpm
[3]; [8]
  % of total: 100 % of total
  dpm: 489692 dpm
[3]; [9]
  % of total: 0 % of total
  dpm: 0 dpm
[3]; [10]
  % of total: 0 % of total
  dpm: 0 dpm
[3]; room temperature, Tris pH 7.5
  time within which the chelate forms: ≤ 5 min
